Assay results published in patent US20110135671A1, “PURINE DERIVATIVES FOR USE IN THE TREATMENT OF ALLERGIC, INFLAMMATORY AND INFECTIOUS DISEASES” (GLAXOSMITHKLINE LLC, priority 2008, published 2011).

Key:
[1] = test system: Interferon-α; test: Induction of Interferon-α using cryopreserved human PBMCs; format: cell-based; settings: PBMC, 24 h, normalised to 1 uM resiquimod, read-out: mean pEC50 for induction of Interferon-α (converted)
How it was run: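 Thawed cryopreserved human PBMCs at 1×10^6 cells/ml in RPMI/10% FCS with 1000 units/ml IFN-gamma were exposed to 11-point, 2-fold compound dilutions for 24 h at 37° C. Supernatant IFN-α was quantified by MSD sandwich immunoassay. pEC50 came from 4-parameter fit, normalised to 1 uM resiquimod and DMSO controls.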

[2] = test system: Interferon-α; test: Induction of Interferon-α using fresh human PBMCs; format: cell-based; settings: PBMC, 24 hr, relative to 2 μM resiquimod control, read-out: mean pEC50 for induction of IFN-α (converted)
Protocol: (§1) Assay for the Induction of Interferon-α and TNF-α Using Fresh Human Peripheral Blood Mononuclear Cells (PBMCs)
(§2) Compounds were dissolved and serially diluted in DMSO to give 100× the required concentration range using a Biomek 2000. 1 ul of test compound was transferred into 96-well tissue culture plates using a Biomek FX. Each compound was assayed in duplicate for each donor. Each plate contained a dilution series of the TLR7/8 agonist resiquimod as standard and Column 11 contained 1 μl of 200 μM resiquimod (giving a 2 μM final concentration, used to define the approximate maximal response to resiquimod).
(§3) Blood samples from two human donors were collected into sodium heparin (10 U/ml). 25 ml volumes of whole blood were overlaid onto 15 mls Histopaque in Leucosep tubes which were centrifuged at 800 g for 20 min and the band at the plasma/histopaque interface carefully removed. The collected cells were centrifuged at 2500 rpm for 10 min and the pellet resuspended in 10 ml of media (RPMI 1640 (Low endotoxin) supplemented with 10% v/v foetal calf serum (FCS, low endotoxin) 100 U/ml penicillin G, 100 μg/ml streptomycin, 10 mM L-glutamine and 1× non-essential amino acids). A 1:20 dilution of the cells was prepared using trypan blue & the cells counted using a haemocytometer. The PBMCs were diluted to give a final concentration of 2×10^6/ml and 100 ul of this cells suspension was added to wells containing 1 μl of diluted test compound.
(§4) The cell preparations were incubated for 24 hr (37° C., 95% air, 5% CO2) after which a sample of the supernatant was removed using the Biomek FX and assayed for both IFN-α and TNF-α using the MSD (Mesoscale Discovery) electrochemiluminescence assay platform. The IFN-α assay was carried out similarly to that described above. The TNF-α assay was carried out as per kit instructions (Cat No K111 BHB).
(§5) Cytokine released was expressed as a percentage of the 2 μM resiquimod control (column 11). This percentage was plotted against compound concentration and the pEC50 for the response determined by non-linear least squares curve fitting. For the IFN-α responses generally a 4 parameter logistic model was selected. For the TNF responses where a clear maximum response was obtained (i.e. a well defined plateau in the response was observed) then a 4 parameter model was generally used. If the upper asymptote of the curve wasn't well defined then the curve fitting was generally constrained to a maximal response of 100% (i.e., to the response to 2 μM resiquimod) or to the response of the highest concentration tested if this was greater than the resiquimod response. Some curves were bell shaped for one or both cytokines and the cytokine data on the down slope of the bell shaped response (i.e. concentrations above those giving the maximal response) were generally excluded from the fit, usually with the exception of the concentration immediately above the peak response. Curve fitting thus concentrated on the up slope of the dose response curve.

[3] = test system: Interferon-α; test: Induction of Interferon-α following intranasal dosing in the mouse; format: in vivo; settings: female BALB/c mice, 2 hours after dosing, ELISA
Protocol: Assay for the Induction of Interferon-α Following Intranasal Dosing in the Mouse.
Example 46 was dissolved in 0.2% Tween 80 in saline and administered intranasally (5 μl in total between the nostrils) to female BALB/c mice (n=6) under general anaesthesia. Animals were euthanased 2 hours after dosing and a terminal blood sample was taken and serum levels of Interferon-α was measured using an ELISA assay. Mean serum levels of Interferon-α of 1253 pg/ml were measured. No Interferon-α was detected in vehicle treated controls.

[4] = test system: TNF-α; test: Induction of TNF-α using fresh human PBMCs; format: cell-based; settings: PBMC, 24 hr, relative to 2 μM resiquimod control, read-out: mean pEC50 for induction of TNF-α (converted)
Protocol: as §1, §2, §3, §4, §5

[5] = test system: IL-13; test: Allergen-driven cytokine assay using fresh human PBMCs from atopic volunteers (IL-13); format: cell-based; settings: at 0.2 μM; atopic donor PBMCs with Timothy grass antigen, up to 6 days
Protocol: (§6) Allergen-Driven Cytokine Assay Using Fresh Human Peripheral Blood Mononuclear Cells (PBMCs) from Atopic Volunteers
(§7) An assay based on co-culture of atopic human donor derived peripheral blood mononuclear cells (PBMCs) with allergen and test compounds was developed. After 5-6 days culture, cell supernatants were assayed for a range of cytokines.
(§8) Compounds were dissolved in DMSO, then serially diluted in growth medium (RPMI 1640 medium supplemented with 100 U/ml penicillin G, 100 μg/ml streptomycin, 10 mM L-glutamine) to give 4× the required concentration range in the presence of 0.04% DMSO. Each compound was assayed in triplicate at all concentrations.
(§9) Defibrinated human blood from volunteers known to be allergic to Timothy grass was centrifuged at 2500 rpm for 15 minutes. The upper layer of serum was collected and heat-inactivated at 56° C. for 30 minutes (HI-autologous serum). The lower layer of cells was resuspended in 50 ml PBS (+Ca +Mg), 25 ml diluted blood were overlaid onto 20 ml Lymphoprep in 50 ml tubes then centrifuged at 2500 rpm for 20 minutes at RT. The band at the serum/Lymphoprep interface was carefully removed. […]
(§10) Plates were incubated at 37° C. in 5% CO2 for up to 6 days. […] Cytokines and chemokines in supernatants were detected using Meso Scale Discovery 10 spot plates for Human TH1/Th2 cytokines.

[6] = test system: IL-5; test: Allergen-driven cytokine assay using fresh human PBMCs from atopic volunteers (IL-5); format: cell-based; settings: at 0.04 μM; atopic donor PBMCs with Timothy grass antigen, up to 6 days
Protocol: as §6, §7, §8, §9, §10

| SMILES | EC50 [1] | EC50 [2] | mean serum levels of Interferon-α [3] | EC50 [4] | reduction of IL-13 production compared to the allergen control [5] | reduction of IL-5 production compared to the allergen control [6] |
| --- | --- | --- | --- | --- | --- | --- |
| CCCCOc1nc(N)c2[nH]c(=O)n(CCCCCN3CCN(C)CC3)c2n1 [Example 46, 6-Amino-2-(butyloxy)-9-[5-(4-methyl-1-piperazinyl)pentyl]-7,9-dihydro-8H-purin-8-one] | < 3.16 µM | < 0.001 µM | 1253 pg/mL | > 1 µM |  |  |
| CCC[C@H](C)Oc1nc(N)c2[nH]c(=O)n(CCCCCN3CCN(C(C)C)CC3)c2n1 [Example 52, 6-Amino-2-{[(1S)-1-methylbutyl]oxy}-9-{5-[4-(1-methylethyl)-1-piperazinyl]pentyl}-7,9-dihydro-8H-purin-8-one] | < 3.16 µM |  |  |  | > 50% | > 50% |
| CCCCOc1nc(N)c2[nH]c(=O)n(CCCCCN3CCN(C(C)C)CC3)c2n1 [Example 48, 6-Amino-2-(butyloxy)-9-{5-[4-(1-methylethyl)-1-piperazinyl]pentyl}-7,9-dihydro-8H-purin-8-one] | < 3.16 µM | < 0.01 µM |  | > 1 µM |  |  |
| CCCCNc1nc(N)c2[nH]c(=O)n(CCCCN3CCN(C(C)(C)C)CC3)c2n1 [Example 41, 6-Amino-2-(butylamino)-9-{4-[4-(1,1-dimethylethyl)-1-piperazinyl]butyl}-7,9-dihydro-8H-purin-8-one] | < 3.16 µM | < 0.1 µM |  | > 3.16 µM |  |  |
